Test results from patent publication US20240057598A1, “USE OF 2-AMINO-3-METHYLHEXANOIC ACID AS PLANT IMMUNITY INDUCER” (NANJING AGRICULTURAL UNIVERSITY, priority 2020, published 2024).

Columns and labels:
Type in all cases: in vivo
[1] = test system: tomato spotted wilt virus; experiment: Induced resistance of tobacco to tomato spotted wilt virus infection; settings: for Relative immune effect / Disease index: tobacco; for Content of virus protein: tobacco leaves, 3 days, Western blot, relative
Procedure: Tomato spotted wilt virus was obtained from Yunnan Province, China. The initial virus source was stored in a refrigerator at −80° C. Nicotiana benthamiana leaves were inoculated with the virus by mechanical inoculation to activate the virus. Viral plasmids were extracted and transformed by competent cells of Escherichia coli. The competent cells were spread on a resistant plate and cultured. Single colonies were selected for PCR screening. Positive colonies were selected for sequencing and subsequent plasmid extraction. Plasmids with normal sequencing were added to competent cells of Agrobacterium, and the Agrobacterium was transformed by electroporation. A solution of the transformed Agrobacterium was spread on the correspondingly resistant screening plate, and cultured at 28° C. (±1) for 48 h. Single colonies of the Agrobacterium on the transformation plate were selected, placed in 5 mL of correspondingly resistant LB medium, and cultured overnight at 28° C. and 180 rpm. Bacterial cells were collected by 2 min of centrifugation at 6,000 rpm, and suspended with an Agrobacterium treatment buffer solution (10 mM MgCl2, 10 mM MES, 10 μM Acetosyringone) until the OD600 value of the suspension was 0.5, and the suspension was treated at 28° C. for 3 h in dark for use.
2-amino-3-methylhexanoic acid was dissolved in distilled water and then diluted with distilled water by gradient into solutions of 0 nM, 0.5 nM, 1 nM and 10 nM. Nicotiana benthamiana seeds were sowed in a small pot, and cultured at 22 (±1)° C., 16 h/8 h light for 5 weeks. Healthy tobacco plants (preferably with 8-10 leaves) were selected and treated with the 2-amino-3-methylhexanoic acid solutions of the above concentrations to conduct spray treatment on the stems and leaves. The treatment was repeated once after 24 h and conducted twice in total. After 24 h, the Agrobacterium solution with a uniform concentration was extracted using a 1 mL syringe, the injection port of the syringe was pressed directly on a small hole on the back of a tobacco leaf, and the bacterial solution was slowly pushed to soak the whole leaf. The soaked tobacco was moved to an environment of 22 (±1)° C. and cultured under 16 h/8 h light. 3 days later, microscopic observation was conducted. At the same time, samples were taken. The gray scale of protein bands was analyzed by Western blot combined with ImageJ software, and the relative protein content of the virus in the leaves was determined. The incidence of tobacco leaves was observed 15 days later, and the disease indexes were recorded according to the Grade and Investigation Method of Tobacco Diseases and Insect Pests (GB/T23222-2008) using a formula as follows: […]
Grading standard of tomato spotted wilt virus infection (grading and investigation were conducted per plant): • Grade 0: The whole plant is disease free. • Grade 1: Heart leaves have clear veins or are slightly mottled, and the diseased plant is not obviously dwarfed. • Grade 3: One-third of leaves are mottled without deformation, or the diseased plant is dwarfed to three quarters or more of a normal plant in height. • Grade 5: One-third to one-half of leaves are mottled, or a few leaves are deformed, or the main veins become black, or the plant is dwarfed to two-thirds to three-quarters of a normal plant in height. • Grade 7: One-half to two-thirds of leaves are mottled or deformed, or a few main and lateral veins become necrotic, or the plant is dwarfed to one-half to two-thirds of a normal plant in height. • Grade 9: The leaves of the whole plant are mottled, seriously deformed or necrotic, or the diseased plant is dwarfed to […] of a normal plant in height.

wheat = experiment: Induced resistance of wheat to high temperature stress; settings: for Dry weight of overground part / Fresh weight of overground part / Heat injury index: 45° C. 9 h, 7 days recovery
Procedure: […] A blank control was additionally set, and 0.02% Tween 20 was added as a surfactant. 4 groups of repetitions were set for each concentration, and a normal temperature blank control was set at the same time. Ryegrass seeds were weighed according to 0.8 g per pot, sowed in a pot with a diameter of 8.5 cm, and planted in a greenhouse at a temperature of 25° C., a humidity of 60%-70%, and a light intensity of 200 μmolm^−2s^−1 (12 h light/12 h dark). On the 8th day of the seedling stage, the ryegrass was sprayed with the 2-amino-3-methylhexanoic acid solutions on the leaves twice in 24 h. 24 h after the second treatment, the plants were transferred to a light incubator at a temperature of 45° C. for conducting high temperature stress treatment for 12 h, and then the plants were taken out and transferred to a greenhouse at a temperature of 25° C. for 7 days of recovery. The injured conditions of the plants were observed and counted, and the heat injury grade was calculated. […] After the counting, the fresh weight of the aboveground part of the plant was weighed, and then the aboveground part was baked in an 85° C. oven for 48 h to determine the dry weight.
Wheat seeds were weighed according to 1.5 g per pot, and planted by a method and under conditions the same as those of ryegrass. When the wheat grew for two weeks in the seedling stage, the experiment was conducted. High temperature stress was conducted for 9 h, and the treatment method and subsequent statistical indexes were the same as those of the ryegrass mentioned above.

"Sikang 1" cotton = experiment: Induced resistance of cotton to salt stress; settings: 100 mM NaCl, three days
Procedure: The experimental material was “Sikang 1” cotton, which was cultured in water in a 500 mL plastic cup, and a ½ Hoagland nutrient solution was changed every three days. When the cotton seedling grew until the second true leaf fully unfolded, the leaf surface was sprayed with 2-amino-3-methylhexanoic acid solutions. The concentrations of 0, 1, 10, 100 and 1,000 nM were set in the experiment, and 0.02% Tween 20 was added as a surfactant. The spraying was repeated once after 24 h and conducted twice in total. On the second day after the treatment, NaCl was added to the ½ Hoagland nutrient solution to a final concentration of 100 mM to conduct salt stress treatment. There were three repetitions in each treatment group. Rehydration treatment was conducted after three days of salt stress, the salt injury symptoms of cotton were observed, and the salt injury index was calculated by a formula as follows: […]

[2] = each concentration in range 0.5-10 nM

Q: `CCCC(C)C(N)C(=O)O` (centres unmarked) [2-amino-3-methylhexanoic acid] was tested. Which Relative immune effect ([1]; 0.5 nM) did it give?
A: The Relative immune effect was 59.06%.

Q: And the Relative immune effect ([1]; 1 nM)?
A: The Relative immune effect was 52.36%.

Q: What about the “Content of virus protein” value ([1]; 1 nM) of the same compound?
A: Its value is 0.33 ± 0.001c.

Q: And the Disease index ([1]; 1 nM, 15 days after inoculation)?
A: The Disease index was 44.81 ± 3.90c.

Q: What about the Relative immune effect ([1]; 10 nM) of the same compound?
A: The Relative immune effect was 22.05%.

Q: What about the “Content of virus protein” value ([1]; 10 nM) of the same compound?
A: Its value is 0.44 ± 0.007b.

Q: What about the Disease index ([1]; 10 nM, 15 days after inoculation) of the same compound?
A: The Disease index was 73.33 ± 2.22b.

Q: And the Disease index [1, 2]?
A: Its Disease index is “lower than 75”.

Q: What about the Relative immune effect [1, 2] of the same compound?
A: Its Relative immune effect is no less than 20%.

Q: What about the “Dry weight of overground part” value (wheat; 10 nM) of the same compound?
A: Its value is 0.72 ± 0.04bc g.

Q: What about the “Fresh weight of overground part” value (wheat; 10 nM) of the same compound?
A: Its value is 1.76 ± 0.13c g.

Q: And the Heat injury index (wheat; 10 nM)?
A: Its Heat injury index is 85%.

Q: What about the “Dry weight of overground part” value (wheat; 100 nM) of the same compound?
A: The value was 0.75 ± 0.04c g.

Q: And the “Fresh weight of overground part” value (wheat; 100 nM)?
A: Its value is 1.87 ± 0.12c g.

Q: And the Heat injury index (wheat; 100 nM)?
A: Its Heat injury index is 75%.

Q: What about the “Dry weight of overground part” value (wheat; 1,000 nM) of the same compound?
A: Its value is 0.78 ± 0.05bc g.

Q: What about the “Fresh weight of overground part” value (wheat; 1,000 nM) of the same compound?
A: The value was 2.11 ± 0.30c g.

Q: What about the Heat injury index (wheat; 1,000 nM) of the same compound?
A: Its Heat injury index is 65%.

Q: And the “Decrease of heat injury index” value (wheat; 10,000 nM)?
A: The value was 40%.

Q: What about the “Dry weight of aboveground part higher than untreated control group” value (wheat; 10,000 nM) of the same compound?
A: The value was 31.94%.

Q: And the “Fresh weight of aboveground part higher than untreated control group” value (wheat; 10,000 nM)?
A: Its value is 102.84%.

Q: And the “Dry weight of overground part” value (wheat; 10,000 nM)?
A: The value was 0.95 ± 0.04ab g.

Q: And the “Fresh weight of overground part” value (wheat; 10,000 nM)?
A: Its value is 3.57 ± 0.50b g.

Q: What about the Heat injury index (wheat; 10,000 nM) of the same compound?
A: Its Heat injury index is 40%.

Q: What about the Death rate ("Sikang 1" cotton; 1 nM) of the same compound?
A: The Death rate was 50%.

Q: And the Salt injury index ("Sikang 1" cotton; 1 nM)?
A: Its Salt injury index is 67%.

Q: What about the Death rate ("Sikang 1" cotton; 10 nM) of the same compound?
A: Its Death rate is 50%.

Q: What about the Salt injury index ("Sikang 1" cotton; 10 nM) of the same compound?
A: Its Salt injury index is 63%.

Q: What about the Death rate ("Sikang 1" cotton; 100 nM) of the same compound?
A: The Death rate was 33%.

Q: And the Salt injury index ("Sikang 1" cotton; 100 nM)?
A: The Salt injury index was 56%.

Q: What about the Death rate ("Sikang 1" cotton; 1,000 nM) of the same compound?
A: Its Death rate is 33%.

Q: And the Salt injury index ("Sikang 1" cotton; 1,000 nM)?
A: Its Salt injury index is 47%.
